Measured values: paper PMC6193737, “Ligand binding properties of two Brugia malayi fatty acid and retinol (FAR) binding proteins and their vaccine efficacies against challenge infection in gerbils” (PLoS Neglected Tropical Diseases, 2018)

Experiments:
Assay type in all cases: binding
rBm-FAR-1 [1] = molecular target: T1, rBm-FAR-1 (Brugia malayi, UniProt A0A0K0J905); assay: fluorescence emission enhancement and blue shift; details: PBS pH 7.2; DAUDA ~1 uM; excitation 345 nm; fluorophore-tagged fatty acid
T1 construct: gene bma-far-1; signal peptide removed; C-terminal 6His tag; secreted from Pichia (PichiaPink strain 4, pPinkalpha-HC, codon optimised); IMAC; ~19 kDa

rOv-FAR-1 [2] = molecular target: T2, rOv-FAR-1 (Onchocerca volvulus, UniProt Q25619); assay: fluorescence emission enhancement and blue shift; details: PBS pH 7.2; DAUDA ~1 uM; excitation 345 nm; fluorophore-tagged fatty acid
T2 construct: recombinant from E. coli, produced by procedures similar to rBm-FAR-2 (His tag, IMAC, signal peptide removed)

rOv-FAR-2 = molecular target: T3, rOv-FAR-2 (Onchocerca volvulus, UniProt C7DRP3); assay: fluorescence emission enhancement; details: PBS pH 7.2
T3 construct: recombinant from E. coli, produced by procedures similar to rBm-FAR-2 (His tag, IMAC, signal peptide removed)

rOv-FAR-1 [3] = molecular target: T2, rOv-FAR-1; assay: fluorescence emission enhancement; details: PBS pH 7.2
rBm-FAR-1 [4] = molecular target: T1, rBm-FAR-1; assay: fluorescence emission enhancement; details: PBS pH 7.2
[5] = retinol ~4 uM, excitation 350 nm

T2 sequence (Q25619 17-178): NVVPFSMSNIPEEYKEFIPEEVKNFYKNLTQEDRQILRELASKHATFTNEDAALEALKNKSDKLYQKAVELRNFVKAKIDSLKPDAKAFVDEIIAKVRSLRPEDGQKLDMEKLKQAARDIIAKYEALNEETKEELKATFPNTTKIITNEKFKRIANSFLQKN
T1 sequence (A0A0K0J905 entry or part of it): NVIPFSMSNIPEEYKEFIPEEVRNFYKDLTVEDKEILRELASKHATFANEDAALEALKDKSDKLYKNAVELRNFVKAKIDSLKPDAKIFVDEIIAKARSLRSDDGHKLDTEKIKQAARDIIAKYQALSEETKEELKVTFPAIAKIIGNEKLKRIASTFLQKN
T3 sequence (C7DRP3 entry or part of it): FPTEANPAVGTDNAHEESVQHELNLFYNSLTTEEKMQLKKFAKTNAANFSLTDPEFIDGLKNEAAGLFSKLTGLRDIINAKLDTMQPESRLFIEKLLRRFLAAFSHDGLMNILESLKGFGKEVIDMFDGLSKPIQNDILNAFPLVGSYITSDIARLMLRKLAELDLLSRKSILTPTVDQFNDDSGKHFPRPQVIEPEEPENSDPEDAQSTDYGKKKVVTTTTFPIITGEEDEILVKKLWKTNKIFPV

SMILES: CN(C)c1cccc2c(S(=O)(=O)NCCCCCCCCCCC(=O)O)cccc12 [DAUDA, 11-((5-dimethylaminonaphthalene-1-sulfonyl)amino)undecanoic]
- fluorescence emission enhancement and blue shift (rBm-FAR-1 [1]): rBm-FAR-1 produced a large increase in DAUDA emission and a substantial blue-shift
- fluorescence emission enhancement and blue shift (rOv-FAR-1 [2]): FAR-1s bind DAUDA, yielding similarly substantial increases and blue shift

SMILES: CC1=C(/C=C/C(C)=C/C=C/C(C)=C/CO)C(C)(C)CCC1 [all-trans retinol]
- fluorescence emission enhancement (rOv-FAR-2; [5]): the proteins from both parasites bind retinol
- fluorescence emission enhancement (rOv-FAR-1 [3]; [5]): the proteins from both parasites bind retinol
- fluorescence emission enhancement (rBm-FAR-1 [4]; [5]): Addition of retinol to either rBm-FAR-1 or rBm-FAR-2 resulted in substantial increases in fluorescence emission

SMILES: CC\C=C/C=C/C=C/C=C\CCCCCCCC(=O)O [cis-parinaric acid]
- fluorescence emission enhancement (rOv-FAR-2; cPnA ~4 uM, excitation 319 nm): both FAR-1s and FAR-2s bind a natural, intrinsically fluorescent, fatty acid acid (cPnA)
- fluorescence emission enhancement (rOv-FAR-1 [3]; cPnA ~4 uM, excitation 319 nm): both FAR-1s and FAR-2s bind a natural, intrinsically fluorescent, fatty acid acid (cPnA)
- fluorescence emission enhancement (rBm-FAR-1 [4]; cPnA ~4 uM, excitation 319 nm): Both rBm-FAR-1 and rBm-FAR-2 bound cPnA
